Test results published in EP4588485A1, “PHARMACEUTICAL COMBINATION OF FAK INHIBITOR AND TOPOISOMERASE INHIBITOR AND USE THEREOF” (Inxmed (Nanjing) Co., Ltd., priority 2022, dated 2024).

What was measured:
[1] = tested on: CT26 cells; assay: CCK-8 cell proliferation inhibition; assay type: cell-based; conditions: Mus musculus, single drug, 72 hours, CCK8, OD450
Experimental: CT26 cells were cultured with RPMI-1640 (Shanghai Basalmedia, catalog number: L210KJ, batch number: F210916) + 10% FBS (Gibco, catalog number: 10099-141c, batch number: 2158737cp), and passaged twice. When the cells were in good condition, they were placed in a 96-well plate, 3000 cells/well. […] 10 drug concentrations were set. The first concentration was 30 µM, which was serially diluted 5-fold, and the last one was the control, with the drug concentration of 0. Each drug concentration was run in triplicate. At the same time, another group of cells was established with the same drug concentration as that in the above method.
10 µl of CCK8 detection reagent (Cellorlab, classification number: CX001M, batch number: 2571100) was added to each well, and the plate was incubated in a 5% CO2 incubator at 37 °C for 2-4 hours. Then the plate was read using microplate reader OD450 (chemiluminescence method). […]
CT26 cells were digested with trypsin, and then the cells were collected and counted. […]
After 72 hours of drug action, 10 µL of CCK-8 detection reagent was added to each well of the cell plate using a multi-channel pipette, and then the cell plate was incubated in a 37 °C, 5% CO2 incubator for another 4 hours. Finally, the absorbance of each well at 450 nm was measured using an ELISA reader. […]

[2] = tested on: MDA-MB-231 cells; assay: Apoptosis by Annexin V flow cytometry after FAK siRNA silencing plus topoisomerase inhibitor; assay type: cell-based; conditions: FAK siRNA 50 nM for 24 hours, then 2 µM drug for 48 hours; FAK silencing group compared with control siRNA group; Fig. 1 / Fig. 3
Experimental: The siRNA technology was used in the in vitro assay to reduce the expression level of FAK, and combined with Etoposide for 48 hours; flow cytometry was used to detect apoptosis in control and FAK silenced cells.
Assay antibodies: recombinant Alexa Fluor® 647 fluorescent Anti-Calreticulin antibody (Abcam, ab196159), Annexin V apoptosis detection kit (Invitrogen, A35110).
MDA-MB-231 cells were transfected with control siRNA or FAK siRNA at a final concentration of 50 nM, respectively. After the transfection for 24 hours, the cells were treated with 2 µM of Etoposide for 48 hours. The cells were stained using Annexin V kit and detected by flow cytometry. The early and late apoptotic values were counted, compared with those of the DMSO control group, and plotted using Graphpad 8.0.
The siRNA technology was used in the in vitro assays to reduce the expression level of FAK, and combined with Teniposide for 48 hours; flow cytometry was used to detect apoptosis in control and FAK silenced cells. […]
MDA-MB-231 cells were transfected with control siRNA or FAK siRNA at a final concentration of 50 nM, respectively. […] The cells were stained using Annexin V kit and detected by flow cytometry. The early and late apoptosis values were counted, compared with those of the DMSO control group, and plotted using Graphpad 8.0.

[3] = tested on: CT26 cells; assay: Microscope observation of cell status after 48 hours of drug action; assay type: cell-based, mouse; conditions: IN10018 5 µM; for cell status observed under a microscope: Etoposide 20 µM, Fig. 6; for cell status observed under a microscope (cell death / cell viability): Teniposide 4.8 µM
Experimental: CT26 cells (Institute of Cell Biology, Chinese Academy of Sciences) were cultured with RPMI-1640 (Shanghai Basalmedia, catalog number: L210KJ, batch number: F210916) + 10% FBS (Gibco, catalog number: 10099-141c, batch number: 2158737cp), and passaged twice. When the cells were in good condition, they were placed in a 24-well plate. After 24 hours of cell spreading, four groups were set up. The first group was the control group, in which culture medium was added; the second group was IN10018 at a concentration of 5µM; the third group was Etoposide (source: MCE, classification number: 33419-42-0, batch number: 113741) with a concentration of 20 µM; and the fourth group was a combination group of IN10018 (5 µM) and Etoposide (20 µM). The drugs were mixed and cultured in a 5 % CO2 incubator at 37°C for 48 hours.
After 48 hours of drug action, the cells were observed and photographed under a microscope. The photos were saved. Then the cells were collected for flow cytometry, and the cells were washed twice with flow buffer (PBS + 2% FBS). 0.5 µl of AF647 anti-Calreticulin antibody (abcam, catalog number: ab196159, batch number: CR33676773) was added to each well, and fully mixed. The cells were incubated at 4 °C for 20 minutes in the dark. After 20 minutes, the cells were washed twice with flow buffer (PBS + 2% FBS). Cell apoptosis detection kit (Beyotime, catalog number: CL062L, batch number: 021921210811) was used. 195 µl of Annexin-V-FITC binding solution was added, and the cells were gently mixed. 5 µl of annexin-V-FITC antibody was added, and the mixture was gently mixed. 10 µl of PI dye was added and gently mixed. The mixture was incubated at room temperature in the dark for 15 minutes, and then analyzed on a flow cytometer.
After 48 hours of drug action, the cells were photographed using a microscope, then trypsinized and collected for flow cytometry staining.

[4] = tested on: MC38 mouse colorectal cancer cells; assay: In vivo antitumor efficacy in subcutaneous allograft tumor model; parameters: species or system C57BL/6 mice
Experimental: Table 12: Animal groups and dosing regimens for in vivo efficacy assays
(§1) • 1. N: number of mice in each group; • 2. Dosing volume: 10 mL/kg based on the mouse body weight. If the body weight dropped by more than 15%, the administration of the animals would be stopped; When the body weight recovered to 90%, the administration would be resumed. • 3. The Etoposide dose was increased to 6 mg/kg on the 6th day after grouping and dosing;
Colorectal cancer cells MC38 (from Nanjing Cobioer Biotechnology Co., Ltd., article number: CBP60825) were maintained and passaged by InxMed (Nanjing) Co., Ltd. Cells were cultured in monolayer in vitro under the following conditions: DMEM medium with 10% fetal bovine serum, in a 37°C, 5% CO2 incubator. Cells were routinely digested and passaged two to three times a week using trypsin-EDTA. When the cells were in the exponential growth phase and the adherent confluence reached 80%-90%, the cells were harvested, counted, and then inoculated.
0.1 mL of cell suspension containing 2×10^5 cells was subcutaneously inoculated on the right back of each mouse. When the tumor volume reached about 50 mm^3 (9th day after cell inoculation), the mice were randomly divided into groups and administered according to the tumor volume. Table 13: Test substance and control solvent preparation
The assay index was to examine whether the tumor growth was inhibited, delayed, or cured. Tumor diameters were measured three times a week using calipers. The tumor volume was calculated using the formula: V = 0.5 × a × b^2, where a and b represent the long and short diameters of the tumor, respectively.
The anti-tumor efficacy of the compound was evaluated by TGI (%), which reflected the tumor growth inhibition rate. Based on the tumor volume on the first day after grouping, the tumor growth inhibition rate TGI (%) was calculated according to the following formula: TGI (%) = [1 - (average tumor volume of an administration group - average tumor volume of the administration group at the beginning of treatment) / (average tumor volume of the solvent control group - average tumor volume of the solvent control group at the beginning of treatment)] × 100%.
Statistical analysis was based on tumor volume at the end of the assay using Prism Graphpad software. Comparisons between multiple groups were analyzed using Two-way ANOVA and Fisher's LSD test. A P-value of less than 0.05 was considered statistically significant.
After cell inoculation, tumor growth was observed every day. On the 9th day after inoculation, mice were grouped based on tumor volume. The average tumor volume at enrollment was approximately 50 mm^3.

[5] = day 17 after group administration, 6 mice per group; deaths due to tumor rupture
Experimental: as §1
The formulation and any modifications of this assay protocol had been assessed and approved by the IACUC of ArrayBridge. The use and welfare of assay animals were carried out in accordance with AAALAC regulations. The health status and mortality of animals were monitored daily, with routine checks including observation of tumor growth and the impact of drug treatment on the animals' daily behavior, such as activity, food and water intake (estimated by visual inspection), changes in body weight, physical signs, or any other abnormalities. The number of animal deaths and side effects in each group were recorded based on the number of animals in each group.
The assay was carried out according to the dosing regimen. During the assay, the animals' activities such as eating and drinking were observed every day, and the body weight of the animals was recorded three times a week. […]

[6] = tested on: MDA-MB-231 cells; assay: Calreticulin release and exposure by flow cytometry after FAK siRNA silencing plus topoisomerase inhibitor; assay type: cell-based; conditions: FAK siRNA 50 nM for 24 hours, then 2 µM drug for 48 hours; compared with control siRNA; Fig. 2 / Fig. 4
Experimental: The siRNA technology was used in the in vitro assay to reduce the expression level of FAK, and combined with Etoposide for 48 hours. Flow cytometry was used to detect the expression of Calreticulin, the main target of ICD.
MDA-MB-231 cells were transfected with control siRNA or FAK siRNA at a final concentration of 50 nM, respectively. After the transfection for 24 hours, the cells were treated with 2 µM of Etoposide for 48 hours. The cells were fluorescent stained with Calreticulin antibody, and the staining results were analyzed by flow cytometry.
The siRNA technology was used in the in vitro assay to reduce the expression level of FAK, and combined with Teniposide for 48 hours. Flow cytometry was used to detect the expression of Calreticulin, the main target of ICD.
MDA-MB-231 cells were transfected with control siRNA or FAK siRNA at a final concentration of 50 nM, respectively. After the transfection for 24 hours, the cells were treated with 2 µM Teniposide for 48 hours. The cells were fluorescent stained with Calreticulin antibody, and the staining results were analyzed by flow cytometry.

Structure (SMILES)	IC50 [1]	apoptosis (early and late apoptotic values) [2]	cell status observed under a microscope [3]	cell status observed under a microscope (cell death / cell viability) [3]	Tumor volume on day 17 ([4]; 17th day after group administration, Etoposide 3 mg/kg PO QD (6 mg/kg from the 6th day), IN10018 25 mg/kg PO QD, PD-L1 antibody 5 mg/kg i.p. BIW, mean ± SD)	Tumor volume on day 0 ([4]; baseline on the day of grouping, mean ± SD, 6 mice per group)	TGI ([4]; day 17 vs. control group, Etoposide 3 mg/kg PO QD (6 mg/kg from the 6th day), IN10018 25 mg/kg PO QD, PD-L1 antibody 5 mg/kg i.p. BIW)	inhibitory effect on tumor growth ([4]; in words, compared with the blank control group, whole dosing cycle, Fig. 11)	Animal Survival [5]	release and exposure of Calreticulin [6]
COc1cc([C@@H]2c3cc4c(cc3[C@@H](O[C@@H]3O[C@@H]5CO[C@@H](C)O[C@H]5[C@H](O)[C@H]3O)[C@H]3COC(=O)[C@H]23)OCO4)cc(OC)c1O [Etoposide]	24.4 µM	significantly enhanced	poor	obvious	2420.2±1377.3 mm^3	48.2 ± 10.2 mm^3	9.5%	no inhibitory effect	5/6	significantly enhanced
COc1cc(C(=O)NC2CCN(C)CC2)c(F)cc1Nc1ncc(C(F)(F)F)c(Oc2cccc3c2C(=O)N(C)C3)n1 [IN10018]			good	better						
COc1cc([C@@H]2c3cc4c(cc3[C@@H](O[C@@H]3O[C@@H]5CO[C@@H](c6cccs6)O[C@H]5[C@H](O)[C@H]3O)[C@H]3COC(=O)[C@H]23)OCO4)cc(OC)c1O [Teniposide]	0.818 µM	significantly enhanced								significantly enhanced
